Laboratory results published in patent US20080026996A1, “Selective Vpac2 Receptor Reptide Agonists” (ELI LILLY AND COMPANY, priority 2004, published 2008).
Where “and” joins values, the source holds several entries; their conditions need not be identical. Equal values may be shown once. Where no end group is shown, it is not given here.

Assays:
[1] = target: T1, human VPAC2 (Homo sapiens, UniProt P41587); test: DiscoveRx cAMP in vitro potency, CHO-S cell line stably expressing human VPAC2 receptor; type: cell-based; conditions: cAMP generation; mean of two independent runs
T1 construct: expressed in transfected cells
T1 sequence (P41587 24-438): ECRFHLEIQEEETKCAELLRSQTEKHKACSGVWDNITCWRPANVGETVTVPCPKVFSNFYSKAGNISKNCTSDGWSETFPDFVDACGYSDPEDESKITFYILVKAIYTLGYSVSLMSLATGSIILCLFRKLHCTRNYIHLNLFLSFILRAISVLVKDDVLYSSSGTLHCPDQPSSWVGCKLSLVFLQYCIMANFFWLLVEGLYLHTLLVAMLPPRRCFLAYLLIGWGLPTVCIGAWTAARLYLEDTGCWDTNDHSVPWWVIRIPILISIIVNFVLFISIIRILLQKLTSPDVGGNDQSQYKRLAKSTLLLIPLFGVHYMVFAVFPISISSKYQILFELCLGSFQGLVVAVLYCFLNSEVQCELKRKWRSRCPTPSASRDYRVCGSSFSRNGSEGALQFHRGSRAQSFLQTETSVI
Description: (§1) Also, the cells are washed twice. The cells are incubated in assay buffer plus IBMX for 15 minutes at room temperature. […] The stimuli are present for 30 minutes. Then, the assay buffer is gently removed. […] At day 3, the assay described above for the VPAC2 receptor cell line is performed.

[2] = system: Normal Wistar rats; test: Intravenous glucose tolerance test (IVGTT); type: in vivo, rat; conditions: IVGTT, insulin
Description: Intravenous glucose tolerance test (IVGTT): Normal Wistar rats are fasted overnight and are anesthetized prior to the experiment. A blood sampling catheter is inserted into the rats. The compound is given in the jugular vein. Blood samples are taken from the carotid artery. A blood sample is drawn immediately prior to the injection of glucose along with the compound. After the initial blood sample, glucose mixed with compound is injected intravenously (i.v.). A glucose challenge of 0.5 g/kg body weight is given, injecting a total of 1.5 mL vehicle with glucose and agonist per kg body weight. The peptide concentration vary to produce the desired dose in μg/kg. Blood samples are drawn at 2, 4, 6 and 10 minutes after giving glucose. The control group of animals receives the same vehicle along with glucose, but with no compound added. In some instances, a 30 minute post-glucose blood sample is drawn. Aprotinin is added to the blood sample (250 kIU/ml blood). The serum is then analyzed for glucose and insulin using standard methodologies.
The assay uses a formulated and calibrated peptide stock in PBS. Normally, this stock is a prediluted 100 μM stock. However, a more concentrated stock with approximately 1 mg agonist per mL is used. The specific concentration is always known. Variability in the maximal response is mostly due to variability in the vehicle dose.

[3] = target: T1, human VPAC2; test: Filter binding assay, membranes of stable VPAC2 cell line, 125I-labeled VIP tracer (Table 2); conditions: read-out: Human VPAC2 Receptor Binding
In short: (§2)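 Membranes 2.5 μg/well; tracer ~40000 cpm; buffer 25 mM HEPES pH 7.4, 0.5% protease-free BSA; 1 h incubation, shaking. Glass-fibre filtration (0.5% polyethyleneamine presoak, 0.2% BSA block), 3× HEPES wash, dry 1 h at 60° C, scintillation count.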

[4] = target: T2, human VPAC1 (Homo sapiens, UniProt P32241); test: Filter binding assay, membranes of cells transiently transfected with human VPAC1, 125I-labeled VIP tracer (Table 2); parameters: expressed in transfected cells; conditions: read-out: Human VPAC1 Receptor Binding
T2 sequence (P32241 31-457): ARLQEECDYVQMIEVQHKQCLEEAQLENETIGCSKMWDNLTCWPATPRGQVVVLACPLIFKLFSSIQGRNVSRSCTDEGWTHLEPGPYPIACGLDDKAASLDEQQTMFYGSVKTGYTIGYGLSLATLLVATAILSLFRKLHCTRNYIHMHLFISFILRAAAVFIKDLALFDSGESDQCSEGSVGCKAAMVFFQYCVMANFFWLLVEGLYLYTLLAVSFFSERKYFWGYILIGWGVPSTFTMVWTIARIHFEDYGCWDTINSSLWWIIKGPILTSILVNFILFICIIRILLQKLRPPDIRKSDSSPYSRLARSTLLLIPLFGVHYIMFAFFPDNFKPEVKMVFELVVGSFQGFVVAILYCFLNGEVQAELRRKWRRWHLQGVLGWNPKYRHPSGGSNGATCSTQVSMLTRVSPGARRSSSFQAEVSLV
In short: as §2

[5] = target: T3, human PAC1 (Homo sapiens, UniProt P41586); test: DiscoveRx cAMP in vitro potency, CHO-PO cells transiently transfected with human PAC1 receptor; type: cell-based; parameters: expressed in transfected cells; host or cells: CHO-PO, transient (Lipofectamine); conditions: cAMP generation; mean of two independent runs; read-out: Human PAC1 Receptor: DiscoveRx EC50
T3 sequence (P41586 21-468): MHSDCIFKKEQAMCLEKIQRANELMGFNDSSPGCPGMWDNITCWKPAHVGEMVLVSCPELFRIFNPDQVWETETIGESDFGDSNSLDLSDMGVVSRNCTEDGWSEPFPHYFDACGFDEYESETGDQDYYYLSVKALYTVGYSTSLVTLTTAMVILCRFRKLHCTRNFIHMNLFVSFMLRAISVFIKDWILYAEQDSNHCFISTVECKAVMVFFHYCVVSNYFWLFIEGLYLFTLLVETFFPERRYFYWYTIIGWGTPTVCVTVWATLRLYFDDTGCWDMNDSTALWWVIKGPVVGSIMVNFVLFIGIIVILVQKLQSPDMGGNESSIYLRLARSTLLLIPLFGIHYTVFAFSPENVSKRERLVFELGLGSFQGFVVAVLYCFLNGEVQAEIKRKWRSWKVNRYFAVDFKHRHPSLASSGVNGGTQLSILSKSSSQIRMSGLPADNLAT
Description: as §1

[6] = target: T4, DPP-IV (Sus scrofa, UniProt P22411); test: DPP-IV HPLC assay: in vitro incubation with purified dipeptidyl-peptidase IV; type: in vitro ADME, Porcine
T4 construct: purchased Sigma
Description: Part 1: Formulation of Selective VPAC2 Receptor Peptide Agonists: […]
Approximately 2 mg of lyophilized peptide is weighed and dissolved in approximately 1.6 mL de-ionized water. […] After incubation at room temperature for 30 minutes, 1/10th of the original volume 10×PBS is added. The pH is adjusted to between pH 7.2 and 7.6. The peptide solution is filtered through a 0.22 μm Millex-GV syringe filter (Millipore, Bedford Mass., USA). The peptide concentration is determined through absorption at 280 nm. The peptide concentration is then adjusted to 100 μM. The peptides are frozen at −20° C. for further use.
Part 2: In Vitro Incubation of Selective VPAC2 Receptor Peptide Agonists with Purified Dipeptidyl-Peptidase IV (DPP-IV):
The stability of selective VPAC2 receptor peptide agonists against proteolysis by DPP-IV is determined using 100 μL of a 100 μM peptide solution in 1×PBS. A 10 μL solution is removed and quenched with 40 μL of 0.1% trifluoroacetic acid (TFA)/20% acetonitrile (ACN). This solution (20 μL) is analyzed by reversed-phase HPLC. The reversed-phase analysis consists of a Zorbax 300SB-C8 column (3.5 micron, 4.6×50 mm, Alltech Associates, Inc., Deerfield Ill., USA) running a 15-40% B gradient over 15 minutes at 60° C. where A-buffer is 0.1% (v/v) TFA in water and B-buffer is 0.085% (v/v) TFA in ACN. The peak area is integrated. This peak area serves as an internal control as 100% intact peptide.
A 10 μL aliquot of a 1.12 mU/μL solution of DPP-IV (Sigma, St. Louis, La., USA) is added to 90 μL of a 100 μM solution of peptide, resulting in a substrate concentration of 90 μM peptide. The reaction mixture is then stored at 37° C. At various time-points, 10 μL of solution is removed, quenched with 40 μL 0.1% TFA/20% ACN, and analyzed by reversed-phase HPLC as described above. The remaining full length peptide concentration (nM) at each timepoint, except time=0, is calculated using following formula: [formula]
For the time=0 timepoint, the concentration (nM) is calculated using the following formula: [formula]

[7] = target: T1, human VPAC2; test: Alpha screen cAMP in vitro potency, human VPAC2 receptor; type: cell-based; conditions: cAMP generation; single result from two analyses performed in a single run; read-out: Human VPAC2 Receptor: Alpha Screen EC50
In short: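 Under reduced light, acceptor beads accompany the stimuli during a 60-minute incubation of cells in stimulation buffer (50,000 per well point). Donor beads go in with lysis buffer for a further 60–120 minutes, and the resulting AlphaScreen signal indicates cAMP levels.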

[8] = target: T3, human PAC1; test: Filter binding assay, membranes of cells transiently transfected with human PAC1, 125I-labeled PACAP-27 tracer (Table 2); parameters: expressed in transfected cells; conditions: read-out: Human PAC1 Receptor Binding
In short: as §2

T4 sequence (P22411 whole entry): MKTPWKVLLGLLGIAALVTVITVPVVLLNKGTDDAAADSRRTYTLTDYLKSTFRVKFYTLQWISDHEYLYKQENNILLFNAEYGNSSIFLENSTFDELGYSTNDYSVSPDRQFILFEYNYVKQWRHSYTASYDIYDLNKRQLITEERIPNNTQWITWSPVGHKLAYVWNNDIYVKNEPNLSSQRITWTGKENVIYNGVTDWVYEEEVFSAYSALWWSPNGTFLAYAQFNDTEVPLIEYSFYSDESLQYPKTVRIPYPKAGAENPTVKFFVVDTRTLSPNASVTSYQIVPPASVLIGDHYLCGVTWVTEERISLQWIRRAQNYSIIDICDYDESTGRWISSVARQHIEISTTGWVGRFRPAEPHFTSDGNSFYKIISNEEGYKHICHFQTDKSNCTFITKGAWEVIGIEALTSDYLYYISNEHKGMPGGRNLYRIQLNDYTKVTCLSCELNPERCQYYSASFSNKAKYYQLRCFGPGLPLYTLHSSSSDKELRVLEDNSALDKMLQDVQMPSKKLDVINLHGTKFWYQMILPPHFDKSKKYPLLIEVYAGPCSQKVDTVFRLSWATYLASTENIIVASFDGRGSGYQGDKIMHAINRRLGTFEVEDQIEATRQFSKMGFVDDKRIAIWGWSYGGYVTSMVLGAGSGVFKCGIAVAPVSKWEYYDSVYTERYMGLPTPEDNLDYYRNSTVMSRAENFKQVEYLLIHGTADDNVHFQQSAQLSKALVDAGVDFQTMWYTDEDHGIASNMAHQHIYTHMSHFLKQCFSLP

Row | Substance | EC50 [1] [nM] | IC50 [3] [nM] | IC50 [4] [nM] | EC50 [5] [nM] | other results
1 | HSDIVFTDNYTRLRKQVAAKKYLQSIKNKRYGGPSSGAPPPS [Agonist P50] | 19.3 | – | – | – | –
2 | HVDAVFTDNYTRLRKQVAAKKYLQSIKNKRYGGPSSGAPPPS [Agonist P44] | 0.92 | – | – | – | % increase AUC: Dose = 0.1 μg/kg ([2]; 0.1 μg/kg): 19%; % increase AUC: Dose = 10 μg/kg ([2]; 10 μg/kg): 194%
3 | HSDAVFTDNYTRLRKQVAAKKYLQSIKNGRPSSGAPPPS [Agonist P92] | 8.2 | 0.86 | 74.6 | – | –
4 | H-HSDAVFTDNYTRAKAKVAAKKYLQSIKNKRYGGPSSGAPPPS [Agonist P94] | > 1000 | 71.5 | 271 | – | –
5 | Ac-HSDAVFTDNYTRLRKQVAAKKYLQSIKNKRYGGPSSGAPPPS [Agonist P33] | 0.86 | 2.31 | 120 | 111 | –
6 | MHSDAVFTDNYTRLRKQVAAKKYLQSIKNKRYGGPSSGAPPPS [VPAC2-P104] | – | – | – | – | Concentration (nM) of Remaining Main Peak by RP-HPLC after Incubation of Peptide with Purified Porcine DPP-IV ([6]; Time = 0 hours at 37° C.): 9.0 nM; Concentration (nM) of Remaining Main Peak by RP-HPLC after Incubation of Peptide with Purified Porcine DPP-IV ([6]; Time = 2 hours at 37° C.): 7.8 nM; Concentration (nM) of Remaining Main Peak by RP-HPLC after Incubation of Peptide with Purified Porcine DPP-IV ([6]; Time = 6 hours at 37° C.): 6.6 nM; Concentration (nM) of Remaining Main Peak by RP-HPLC after Incubation of Peptide with Purified Porcine DPP-IV ([6]; Time = 24 hours at 37° C.): 4.1 nM
7 | HSDAVFTDNYTRLRKQVAASKYLQSIKNKRYGGPSSGAPPPS [Agonist P21] | – | 4.94 | 385 | > 100 | EC50 [7]: 11.6 nM
8 | VPAC2-P44 (HVDAVFTDNYTRLRKQVAAKKYLQSIKNKRYGGPSSGAPPPS; not fully specified (N-terminus)) | – | – | – | – | Concentration (nM) of Remaining Main Peak by RP-HPLC after Incubation of Peptide with Purified Porcine DPP-IV ([6]; Time = 0 hours at 37° C.): 9.0 nM; Concentration (nM) of Remaining Main Peak by RP-HPLC after Incubation of Peptide with Purified Porcine DPP-IV ([6]; Time = 2 hours at 37° C.): 6.4 nM and 7.9 nM and 4.5 nM and 6.5 nM
9 | HSDAVFTDNYTRLRKQVAAKKYLQSIKNKRYGGPSSGAPPPS [Agonist P6] | – | 2.58 | 195 | > 40 | IC50 [8]: 334 nM; EC50 [7]: 3.19 nM
